Laboratory results as given in patent US4690926A, “Boxazomycin A and B, new antibiotics containing benzoxazole nucleus” (Bristol-Myers Company, priority 1986, dated 1987).
≈ marks a conversion by molar mass, not a printed value. Counter-ions that a name gives are not always drawn.

Legend:
[1] = tested on: Staphylococcus aureus Smith; assay: In vivo efficacy in infected mice; parameters: species or system Staphylococcus aureus; mice; conditions: for ED50: Staphylococcus aureus, im, 100×LD50 challenge in 5% hog gastric mucin, i.m. just before challenge, read-out: PD50
[2] = tested on: Bacillus subtilis PCI 219; conditions: PCI219
S. aureus A20239 = assay type: cell-based; conditions: Staphylococcus aureus, Nutrient agar (Eiken), kanamycin-resistant
C. perfringens A9635 [3] = assay: microbe, parasite or virus in culture; assay type: cell-based; conditions: Clostridium perfringens
E. coli NIHJ = assay: Effect of pH on antimicrobial activity (MIC, Table 8); assay type: cell-based; conditions: Escherichia coli
B. fragilis A22534 = assay type: cell-based; conditions: Bacteroides fragilis, GA agar (Nissui), lactamase producer
[4] = tested on: Propionibacterium acnes A21933; conditions: Cutibacterium acnes
[5] = tested on: Neisseria gonorrhoeae A15112
[6] = tested on: Peptostreptococcus anaerobius A21905
[7] = tested on: Bacteroides fragilis A22693
S. necrophorus A15202 = assay: Effect of pH on antimicrobial activity (MIC, Table 8); assay type: cell-based; conditions: Fusobacterium necrophorum
K. pneumoniae D11 = assay: as above; assay type: cell-based; conditions: Klebsiella pneumoniae
B. fragilis A20926 = assay: as above; assay type: cell-based; conditions: Bacteroides fragilis
[8] = tested on: Mycobacterium smegmatis 607; conditions: Mycolicibacterium smegmatis
B. subtilis PCI 219 = assay: Effect of pH on antimicrobial activity (MIC, Table 8); assay type: cell-based; conditions: Bacillus subtilis
Toxicity, i.m. = conditions: up to a dose of 400 mg/kg (i.m.)
P. acnes A21933 = assay: Effect of pH on antimicrobial activity (MIC, Table 8); assay type: cell-based, Propionibacterium acnes; conditions: Cutibacterium acnes
[9] = tested on: Haemophilus influenzae A9729
S. aureus BX-1633 = assay type: cell-based; conditions: Staphylococcus aureus, BX1633; Nutrient agar (Eiken); lactamase producer
C. perfringens A9635 [10] = assay: microbe, parasite or virus in culture; assay type: cell-based; conditions: Clostridium perfringens; remark: listed apart in the source
[11] = tested on: Pseudomonas aeruginosa D-113; conditions: D113
[12] = assay type: physicochemical
[13] = tested on: Clostridium difficile A21675; assay type: cell-based; conditions: Clostridioides difficile, GA agar (Nissui), clindamycin-resistant
[14] = tested on: Clostridium perfringens A9635; assay: animal or person; assay type: in vivo, Clostridium perfringens; mice
M. phlei D88 = conditions: Mycolicibacterium phlei
Acidity = assay type: physicochemical
M. smegmatis 607 D46 = assay type: cell-based, Mycobacterium smegmatis; conditions: Mycolicibacterium smegmatis, Nutrient agar (Eiken), kanamycin-resistant
[15] = tested on: Klebsiella pneumoniae D-11; conditions: D11
S. pneumoniae IID = conditions: Streptococcus pneumoniae
S. aureus A22421 = assay type: cell-based; conditions: Staphylococcus aureus, Nutrient agar (Eiken), methicillin-resistant
[16] = tested on: Streptococcus pyogenes S-23; conditions: S23

Cc1cc(O)c(C(N)=O)c2nc(-c3nc(CO)ncc3O)oc12 [Boxazomycin A]
ED50 [1]: 400 mg/kg
in vivo efficacy relative to in vitro activity ([1]; i.m.): lower than that expected from its in vitro activity
protective effect ([1]; i.m.): protective effect in mice against both infections
MIC [2]: 3.1 µg/mL (≈ 9.8 µM)
MIC (S. aureus A20239): 0.4 µg/mL (≈ 1.26 µM)
MIC (C. perfringens A9635 [3]; A9635, pH 6): 0.2 µg/mL (≈ 0.632 µM)
MIC (C. perfringens A9635 [3]; A9635, pH 7): 3.1 µg/mL (≈ 9.8 µM)
MIC (E. coli NIHJ; pH 6): > 100 µg/mL
MIC (E. coli NIHJ; pH 7): > 100 µg/mL
MIC (B. fragilis A22534): 3.1 µg/mL (≈ 9.8 µM)
MIC [4]: 3.1 µg/mL (≈ 9.8 µM)
MIC [5]: > 100 µg/mL
MIC [6]: 3.1 µg/mL (≈ 9.8 µM)
MIC [7]: 6.3 µg/mL (≈ 19.9 µM)
MIC (S. necrophorus A15202; A15202, pH 6): 0.4 µg/mL (≈ 1.26 µM)
MIC (S. necrophorus A15202; A15202, pH 7): 3.1 µg/mL (≈ 9.8 µM)
MIC (K. pneumoniae D11; D11, pH 6): > 100 µg/mL
MIC (K. pneumoniae D11; D11, pH 7): > 100 µg/mL
MIC (B. fragilis A20926; A20926, pH 6): 0.05 µg/mL (≈ 0.158 µM)
MIC (B. fragilis A20926; A20926, pH 7): 3.1 µg/mL (≈ 9.8 µM)
MIC [8]: 1.6 µg/mL (≈ 5.06 µM)
MIC (B. subtilis PCI 219; PCI219, pH 6): 0.8 µg/mL (≈ 2.53 µM)
MIC (B. subtilis PCI 219; PCI219, pH 7): 6.3 µg/mL (≈ 19.9 µM)
toxic symptoms (Toxicity, i.m.): did not show any toxic symptoms up to a dose of 400 mg/kg (i.m.)
MIC (P. acnes A21933; A21933, pH 6): 0.4 µg/mL (≈ 1.26 µM)
MIC (P. acnes A21933; A21933, pH 7): 6.3 µg/mL (≈ 19.9 µM)
MIC [9]: > 100 µg/mL
MIC (S. aureus BX-1633): 0.8 µg/mL (≈ 2.53 µM)
MIC (C. perfringens A9635 [10]): 3.1 µg/mL (≈ 9.8 µM)
MIC [11]: > 100 µg/mL
solubility in alkaline water and dimethylformamide [12]: readily soluble
solubility in ethyl acetate, chloroform, benzene and n-hexane [12]: practically insoluble
solubility in water, methanol, ethanol and acetone [12]: slightly soluble
MIC [13]: 3.1 µg/mL (≈ 9.8 µM)
ED50 ([14]; Clostridium perfringens, A9635, in Mus musculus, im, read-out: PD50): 220 mg/kg
in vivo efficacy relative to in vitro activity ([14]; mice, i.m.): lower than that expected from its in vitro activity
protective effect ([14]; mice, i.m.): protective effect in mice against both infections
MIC (M. phlei D88): 0.8 µg/mL (≈ 2.53 µM)
acidity (Acidity): weakly acidic
MIC (M. smegmatis 607 D46): 1.6 µg/mL (≈ 5.06 µM)
MIC [15]: > 100 µg/mL
MIC (S. pneumoniae IID): 3.1 µg/mL (≈ 9.8 µM)
MIC (S. aureus A22421): 0.8 µg/mL (≈ 2.53 µM)
MIC [16]: 3.1 µg/mL (≈ 9.8 µM)

NC[C@H]1O[C@H](O[C@H]2[C@H](O)[C@@H](O[C@H]3O[C@H](CO)[C@@H](O)[C@H](N)[C@H]3O)[C@H](N)C[C@@H]2N)[C@H](O)[C@@H](O)[C@@H]1O [Kanamycin, kanamycin, reference compound]
ED50 [1]: 1.4 mg/kg
MIC [2]: 0.2 µg/mL (≈ 0.413 µM)
MIC (S. aureus A20239): > 100 µg/mL
MIC (B. fragilis A22534): 50 µg/mL (≈ 103 µM)
MIC [4]: > 50 µg/mL
MIC [5]: 0.4 µg/mL (≈ 0.826 µM)
MIC [6]: > 50 µg/mL
MIC [7]: 50 µg/mL (≈ 103 µM)
MIC [8]: 0.8 µg/mL (≈ 1.65 µM)
MIC [9]: 0.4 µg/mL (≈ 0.826 µM)
MIC (S. aureus BX-1633): 0.8 µg/mL (≈ 1.65 µM)
MIC (C. perfringens A9635 [10]): > 50 µg/mL
MIC [11]: 25 µg/mL (≈ 51.6 µM)
MIC [13]: > 50 µg/mL
MIC (M. phlei D88): 1.6 µg/mL (≈ 3.3 µM)
MIC (M. smegmatis 607 D46): > 100 µg/mL
MIC [15]: 0.4 µg/mL (≈ 0.826 µM)
MIC (S. pneumoniae IID): 25 µg/mL (≈ 51.6 µM)
MIC (S. aureus A22421): 0.8 µg/mL (≈ 1.65 µM)
MIC [16]: 25 µg/mL (≈ 51.6 µM)

Cc1cc(O)c(C(N)=O)c2nc(-c3nc(CO)ncc3O)oc12 [Boxazomycin A di-sodium salt]
solubility in water [12]: soluble in water

Cc1ncc(O)c(-c2nc3c(C(N)=O)c(O)cc(C)c3o2)n1 [Boxazomycin B]
MIC [2]: 1.6 µg/mL (≈ 5.33 µM)
MIC (S. aureus A20239): 0.8 µg/mL (≈ 2.66 µM)
MIC (C. perfringens A9635 [3]; A9635, pH 6): 0.4 µg/mL (≈ 1.33 µM)
MIC (C. perfringens A9635 [3]; A9635, pH 7): 6.3 µg/mL (≈ 21 µM)
MIC (E. coli NIHJ; pH 6): > 100 µg/mL
MIC (E. coli NIHJ; pH 7): > 100 µg/mL
MIC (B. fragilis A22534): 12.5 µg/mL (≈ 41.6 µM)
MIC [4]: 6.3 µg/mL (≈ 21 µM)
MIC [5]: > 100 µg/mL
MIC [6]: 6.3 µg/mL (≈ 21 µM)
MIC [7]: 12.5 µg/mL (≈ 41.6 µM)
MIC (S. necrophorus A15202; A15202, pH 6): 0.4 µg/mL (≈ 1.33 µM)
MIC (S. necrophorus A15202; A15202, pH 7): 6.3 µg/mL (≈ 21 µM)
MIC (K. pneumoniae D11; D11, pH 6): > 100 µg/mL
MIC (K. pneumoniae D11; D11, pH 7): > 100 µg/mL
MIC (B. fragilis A20926; A20926, pH 6): 0.1 µg/mL (≈ 0.333 µM)
MIC (B. fragilis A20926; A20926, pH 7): 3.1 µg/mL (≈ 10.3 µM)
MIC [8]: 3.1 µg/mL (≈ 10.3 µM)
MIC (B. subtilis PCI 219; PCI219, pH 6): 0.2 µg/mL (≈ 0.666 µM)
MIC (B. subtilis PCI 219; PCI219, pH 7): 1.6 µg/mL (≈ 5.33 µM)
MIC (P. acnes A21933; A21933, pH 6): 0.2 µg/mL (≈ 0.666 µM)
MIC (P. acnes A21933; A21933, pH 7): 6.3 µg/mL (≈ 21 µM)
MIC [9]: > 100 µg/mL
MIC (S. aureus BX-1633): 0.8 µg/mL (≈ 2.66 µM)
MIC (C. perfringens A9635 [10]): 12.5 µg/mL (≈ 41.6 µM)
MIC [11]: > 100 µg/mL
solubility in alkaline water and dimethylformamide [12]: readily soluble
solubility in ethyl acetate, chloroform, benzene and n-hexane [12]: practically insoluble
solubility in water, methanol, ethanol and acetone [12]: slightly soluble
MIC [13]: 6.3 µg/mL (≈ 21 µM)
MIC (M. phlei D88): 1.6 µg/mL (≈ 5.33 µM)
acidity (Acidity): weakly acidic
MIC (M. smegmatis 607 D46): 3.1 µg/mL (≈ 10.3 µM)
MIC [15]: > 100 µg/mL
MIC (S. pneumoniae IID): 25 µg/mL (≈ 83.3 µM)
MIC (S. aureus A22421): 0.8 µg/mL (≈ 2.66 µM)
MIC [16]: 12.5 µg/mL (≈ 41.6 µM)
